tested on: Acinetobacter baumannii ATCC17961; assay: 90% Growth Inhibitory Concentration (IC90) determination, antimicrobial susceptibility testing; type: cell-based; details: Acinetobacter baumannii, ATCC17961, 16 h, Acinetobacter baumannii ATCC17961; Iso-Sensitest broth; growth by optical density at 600 nm over 16h; concentration inhibiting 90% of the growth; read-out: ATCC 17961 IC90
Procedure: Antimicrobial Susceptibility Testing:
90% Growth Inhibitory Concentration (IC90) Determination
The in vitro antimicrobial activity of the compounds was determined according to the following procedure:
The assay used a 10-points Iso-Sensitest broth medium to measure quantitatively the in vitro activity of the compounds against Acinetobacter baumannii ATCC17961.
Stock compounds in DMSO were serially twofold diluted (e.g. range from 50 to 0.097 μM final concentration) in 384 wells microtiter plates and inoculated with 49 μl the bacterial suspension in Iso-Sensitest medium to have a final cell concentration of ~5×10^(5) CFU/ml in a final volume/well of 50 ul/well. Microtiter plates were incubated at 35±2° C.
Bacterial cell growth was determined with the measurement of optical density at λ=600 nm each 20 minutes over a time course of 16h. Growth inhibition was calculated during the logarithmic growth of the bacterial cells with determination of the concentration inhibiting 50% (IC50) and 90% (IC90) of the growth.
Table 1 provides the 90% growth inhibitory concentrations (IC90) in micromoles per liter of the compounds of present invention obtained against the strain Acinetobacter baumannii ATCC17961.

SMILES	IC90 [nM]
Cn1c(-c2cn(-c3ccncc3)nc2C(F)(F)F)cnc1C(=O)Nc1ccc(C(=O)N2CCN(C(=O)C3CCNCC3)CC2)c(Cl)c1 [Example A2, N-[3-chloro-4-[4-(piperidine-4-carbonyl)piperazine-1-carbonyl]phenyl]-1-methyl-5-[1-(4-pyridyl)-3-(trifluoromethyl)pyrazol-4-yl]imidazole-2-carboxamide]	710
Cn1c(-c2cn(-c3ccc(NCCC(N)=O)cn3)nc2C(F)(F)F)cnc1C(=O)Nc1ccc(C(=O)N2CCN(C(=O)C3CCNCC3)CC2)c(Cl)c1 [Example C3, 5-[1-[5-[(3-amino-3-oxo-propyl)amino]-2-pyridyl]-3-(trifluoromethyl)pyrazol-4-yl]-N-[3-chloro-4-[4-(piperidine-4-carbonyl)piperazine-1-carbonyl]phenyl]-1-methyl-imidazole-2-carboxamide]	1200
CNc1ccc(-n2cc(-c3cnc(C(=O)Nc4ccc(C(=O)N5CCN(C(=O)CN6CCC(O)C6)CC5)c(Cl)c4)n3C)c(C(F)(F)F)n2)nc1 (stereo not shown) [Example D5, N-[3-chloro-4-[4-[2-(3-hydroxypyrrolidin-1-yl)acetyl]piperazine-1-carbonyl]phenyl]-1-methyl-5-[1-[5-(methylamino)-2-pyridyl]-3-(trifluoromethyl)pyrazol-4-yl]imidazole-2-carboxamide]	310

The remaining lines, values ahead:

IC90 [nM]	SMILES
1220	Cn1c(-c2cn(-c3ccc(N)cn3)nc2C(F)(F)F)cnc1C(=O)Nc1ccc(C(=O)NCC2(NC(=O)[C@@H]3CC(O)CN3)CC2)c(Cl)c1 (stereo in doubt) [Example Z43, 5-[1-(5-amino-2-pyridyl)-3-(trifluoromethyl)pyrazol-4-yl]-N-[3-chloro-4-[[1-[[(2S,4R)-4-hydroxyprolyl]amino]cyclopropyl]methylcarbamoyl]phenyl]-1-methyl-imidazole-2-carboxamide]
1080	COCc1c[nH]nc1-n1cc(-c2cnc(C(=O)Nc3ccc(C(=O)N4CCN(C(=O)C5CCN(C)CC5)CC4)c(Cl)c3)n2C)c(C(F)(F)F)n1 [Example Z9, N-[3-chloro-4-[4-(1-methylpiperidine-4-carbonyl)piperazine-1-carbonyl]phenyl]-5-[1-[4-(methoxymethyl)-1H-pyrazol-3-yl]-3-(trifluoromethyl)pyrazol-4-yl]-1-methyl-imidazole-2-carboxamide]
700	C[C@H]1CN(C(=O)c2ccc(NC(=O)c3ncc(-c4cn(-c5ccc(N)cn5)nc4C(F)(F)F)n3C)cc2Cl)CCN1 [Example Z61, 5-[1-(5-amino-2-pyridyl)-3-(trifluoromethyl)pyrazol-4-yl]-N-[3-chloro-4-[(3S)-3-methylpiperazine-1-carbonyl]phenyl]-1-methyl-imidazole-2-carboxamide]
360	Cn1c(-c2cn(-c3ccc(N)cn3)nc2C(F)(F)F)cnc1C(=O)Nc1ccc(C(=O)NCCCCCN)c(Cl)c1 [Example Z28, N-[4-(5-aminopentylcarbamoyl)-3-chloro-phenyl]-5-[1-(5-amino-2-pyridyl)-3-(trifluoromethyl)pyrazol-4-yl]-1-methyl-imidazole-2-carboxamide]
500	Cn1c(-c2cn(-c3ccc(N)cn3)nc2C(F)(F)F)cnc1C(=O)Nc1ccc(C(=O)N2CC3CN(C(=O)[C@@H]4C[C@@H](O)CN4)CC3C2)c(Cl)c1 (stereo partly drawn) [Example Z37, 5-[1-(5-amino-2-pyridyl)-3-(trifluoromethyl)pyrazol-4-yl]-N-[3-chloro-4-[5-[(2S,4R)-4-hydroxyprolyl]-1,3,3a,4,6,6a-hexahydropyrrolo[3,4-c]pyrrole-2-carbonyl]phenyl]-1-methyl-imidazole-2-carboxamide]
890	Cn1c(-c2cn(-c3ccc(N)cn3)nc2C(F)(F)F)cnc1C(=O)Nc1ccc(C(=O)N2CCNCC23CC3)c(Cl)c1 [Example Z67, 5-[1-(5-amino-2-pyridyl)-3-(trifluoromethyl)pyrazol-4-yl]-N-[3-chloro-4-(4,7-diazaspiro[2.5]octane-4-carbonyl)phenyl]-1-methyl-imidazole-2-carboxamide]
860	Cn1c(-c2cn(-c3ccc(N)cn3)nc2C(F)(F)F)cnc1C(=O)Nc1ccc(C(=O)N[C@H]2CC[C@H](N)C2)c(Cl)c1 [Example Z16]

— patent US12679824B2 (Hoffmann-La Roche Inc., priority 2020, dated 2026)
